Common to all, as to test: isothermal titration calorimetry
Common to all, as to format: binding

Assay [1] deals with T1, yYkt6ΔC (Saccharomyces cerevisiae, UniProt P36015, Q57A/T46L).
T1 construct: gene YKT6; residues 1-195, C-terminal CCIIM motif removed; His6 tag; pET-M3C; E. coli BL21(DE3); not lipidated
T1 sequence (P36015 1-195 T46L/Q57A): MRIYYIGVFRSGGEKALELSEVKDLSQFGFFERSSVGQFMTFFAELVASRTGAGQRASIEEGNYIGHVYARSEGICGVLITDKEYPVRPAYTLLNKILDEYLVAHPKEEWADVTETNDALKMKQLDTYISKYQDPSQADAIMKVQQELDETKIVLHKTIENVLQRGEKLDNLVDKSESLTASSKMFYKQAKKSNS

The target of assay [2] is T2, yYkt6ΔC (Saccharomyces cerevisiae, UniProt P36015, S176D).
T2 construct: gene YKT6; residues 1-195, C-terminal CCIIM motif removed; His6 tag; pET-M3C; E. coli BL21(DE3); not lipidated
T2 sequence (P36015 1-195 S176D): T1 sequence (P36015 1-195 T46L/Q57A) with L46T, A57Q, S176D
The following applies: 50 mM Tris pH 8.0, 100 mM NaCl, 1 mM EDTA, 1 mM β-mercaptoethanol, 25 °C.

Assay [3] addresses T3, yYkt6ΔC (Saccharomyces cerevisiae, UniProt P36015, T46L/Q57A/L172A).
T3 construct: gene YKT6; residues 1-195, C-terminal CCIIM motif removed; His6 tag; pET-M3C; E. coli BL21(DE3); not lipidated
T3 sequence (P36015 1-195 T46L/Q57A/L172A): T1 sequence (P36015 1-195 T46L/Q57A) with L172A
To be noted: 50 mM Tris pH 8.0, 100 mM NaCl, 1 mM EDTA, 1 mM β-mercaptoethanol, 25 °C.

The target in assay [4] is T4, rYkt6ΔC (Rattus norvegicus, UniProt Q5EGY4).
T4 construct: gene Ykt6; residues 1-193, C-terminal CCAIM motif removed; His6 tag; pET-M3C; E. coli BL21(DE3); not lipidated
T4 sequence (Q5EGY4 1-193): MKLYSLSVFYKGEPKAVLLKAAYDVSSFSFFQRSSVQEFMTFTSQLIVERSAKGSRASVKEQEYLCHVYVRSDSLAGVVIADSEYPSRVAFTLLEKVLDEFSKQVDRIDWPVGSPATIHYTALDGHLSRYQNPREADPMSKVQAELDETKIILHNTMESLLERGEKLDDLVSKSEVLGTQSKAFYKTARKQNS

Assay [5] has as its target T5, rYkt6ΔC (Rattus norvegicus, UniProt Q5EGY4, S174D).
T5 construct: gene Ykt6; residues 1-193, C-terminal CCAIM motif removed; His6 tag; pET-M3C; E. coli BL21(DE3); not lipidated
T5 sequence (Q5EGY4 1-193 S174D): T4 sequence (Q5EGY4 1-193) with S174D
To be noted: 50 mM Tris pH 8.0, 100 mM NaCl, 1 mM EDTA, 1 mM β-mercaptoethanol, 25 °C.

The target in assay [6] is T6, yYkt6ΔC (Saccharomyces cerevisiae, UniProt P36015, T46L/Q57A/L169A).
T6 construct: gene YKT6; residues 1-195, C-terminal CCIIM motif removed; His6 tag; pET-M3C; E. coli BL21(DE3); not lipidated
T6 sequence (P36015 1-195 T46L/Q57A/L169A): T1 sequence (P36015 1-195 T46L/Q57A) with L169A
The following applies: 50 mM Tris pH 8.0, 100 mM NaCl, 1 mM EDTA, 1 mM β-mercaptoethanol, 25 °C.

The target of assay [7] is T7, yYkt6ΔC (Saccharomyces cerevisiae, UniProt P36015).
T7 construct: gene YKT6; residues 1-195, C-terminal CCIIM motif removed; His6 tag; pET-M3C; E. coli BL21(DE3); not lipidated
T7 sequence (P36015 1-195): T1 sequence (P36015 1-195 T46L/Q57A) with L46T, A57Q
To be noted: 50 mM Tris pH 8.0, 100 mM NaCl, 1 mM EDTA, 1 mM β-mercaptoethanol, 25 °C.

SMILES strings stand for the structures. Changes are numbered by the printed parent chain.

`CCCCCCCCCCCCOP(=O)([O-])OCC[N+](C)(C)C` [DPC, dodecylphosphocholine]: the Kd at yYkt6ΔC [1] was found to be 33.3 µM; on rYkt6ΔC [4] it was 38.5 µM. Besides, the no binding result is “the phospho-mutant yYkt6ΔC-S176D could not bind DPC either” on yYkt6ΔC [2]; “ITC measurements showed that these mutations disrupt the binding with DPC” at yYkt6ΔC [3]; “ITC experiments showed that DPC could not bind to rYkt6ΔC-S174D mutant” on rYkt6ΔC [5]; “ITC measurements showed that these mutations disrupt the binding with DPC” at yYkt6ΔC [6]; “It turns out that DPC could not bind to yYkt6ΔC” on yYkt6ΔC [7].
